# Results from paper PMC12414871, “Unraveling the functional dynamics of Caenorhabditis elegans stress‐responsive omega class GST‐44” (The Febs Journal, 2025).
# Molecular target: T1, GST‐44 (Caenorhabditis elegans, UniProt O45352)
# T1 construct: recombinant, E. coli BL21(DE3), vector pJC40 with removable N-terminal His tag, Ni-NTA purified
# Assay: thioltransferase assay, substrate saturation curve and Lineweaver-Burk diagram
# Type: biochemical
# Conditions: co-substrate GSH (thioltransferase assay; reduction of spontaneously formed mixed disulfide)
# T1 sequence (O45352 entry or part of it): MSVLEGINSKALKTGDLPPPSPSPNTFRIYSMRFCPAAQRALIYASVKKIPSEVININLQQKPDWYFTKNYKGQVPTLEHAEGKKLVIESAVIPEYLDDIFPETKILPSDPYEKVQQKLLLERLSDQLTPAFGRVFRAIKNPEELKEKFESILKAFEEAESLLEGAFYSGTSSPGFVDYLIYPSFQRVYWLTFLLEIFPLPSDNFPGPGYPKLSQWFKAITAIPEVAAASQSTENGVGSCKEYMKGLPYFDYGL
smiles,measurement,value
OCCSSCCO [2‐hydroxyethyl disulfide],Km,160 µM
